{"source": "patent US12590118B2", "about": "“Salt and crystal form of steroid derivative regulator” (Shanghai Hansoh Biomedical Co., Ltd., priority 2019, dated 2026)", "key": {"[1]": {"assay": "Competitive experiment of different crystal forms of the free base", "assay_type": "physicochemical", "details": "40° C.", "description": "The stability among crystal forms I, II and III of the free base of Example 40 was investigated, so as to select the stable crystal form.\nMultiple portions of about 20 mg of crystal forms I, II and III of the free base of Example 40 were accurately weighed, and mixed in pairs in equal amounts. Methyl tert-butyl ether and n-heptane were added respectively, and the resulting mixture was stirred at 40° C. for 7 days. The mixture was centrifuged at high speed, the supernatant was removed, and the resulting solid precipitate was vacuum dried in an oven at 40° C. and characterized by XRPD."}, "[2]": {"assay": "Crystal form stability experiment (XRPD)", "assay_type": "physicochemical", "description": "X-ray powder diffraction assay was carried out, and the obtained data was compared with the initial data."}}, "data": [{"molecule": "C[C@@H]1C[C@H](C(=O)Cn2ccc(C#N)n2)[C@@]2(C)CC[C@H]3[C@@H](CC[C@@H]4C[C@](C)(O)CC[C@@H]43)[C@H]12", "note": "[Crystal form I, 1-(2-((3R,5R,8R,9R,10S,13S,14S,15R,17S)-3-Hydroxy-3,13,15-trimethylhexadecahydro-1H-cyclopenta[a]phenanthren-17-yl)-2-oxoethyl)-1H-pyrazole-3-carbonitrile]", "values": [{"measurement": "solubility in n-heptane (in words)", "setting": "[1]", "result": "almost insoluble"}, {"measurement": "X-ray powder diffraction peak No. 1", "setting": "[2]; 0 day (initial)", "result": 7.3}, {"measurement": "X-ray powder diffraction peak No. 2", "setting": "[2]; 0 day (initial)", "result": 11.1}, {"measurement": "X-ray powder diffraction peak No. 3", "setting": "[2]; 0 day (initial)", "result": 11.9}, {"measurement": "X-ray powder diffraction peak No. 4", "setting": "[2]; 0 day (initial)", "result": 12.6}, {"measurement": "X-ray powder diffraction peak No. 5", "setting": "[2]; 0 day (initial)", "result": 16.7}, {"measurement": "X-ray powder diffraction peak No. 6", "setting": "[2]; 0 day (initial)", "result": 17.4}, {"measurement": "X-ray powder diffraction peak No. 7", "setting": "[2]; 0 day (initial)", "result": 20.2}, {"measurement": "X-ray powder diffraction peak No. 8", "setting": "[2]; 0 day (initial)", "result": 20.6}, {"measurement": "X-ray powder diffraction peak No. 9", "setting": "[2]; 0 day (initial)", "result": 21.9}, {"measurement": "X-ray powder diffraction peak No. 10", "setting": "[2]; 0 day (initial)", "result": 23.9}, {"measurement": "X-ray powder diffraction peak No. 11", "setting": "[2]; 0 day (initial)", "result": 38.4}, {"measurement": "X-ray powder diffraction peak No. 1", "setting": "[2]; 25° C. RH75%, 5 days", "result": 7.3}, {"measurement": "X-ray powder diffraction peak No. 2", "setting": "[2]; 25° C. RH75%, 5 days", "result": 11.0}, {"measurement": "X-ray powder diffraction peak No. 3", "setting": "[2]; 25° C. RH75%, 5 days", "result": 11.8}, {"measurement": "X-ray powder diffraction peak No. 4", "setting": "[2]; 25° C. RH75%, 5 days", "result": 12.5}, {"measurement": "X-ray powder diffraction peak No. 5", "setting": "[2]; 25° C. RH75%, 5 days", "result": 16.6}, {"measurement": "X-ray powder diffraction peak No. 6", "setting": "[2]; 25° C. RH75%, 5 days", "result": 17.3}, {"measurement": "X-ray powder diffraction peak No. 7", "setting": "[2]; 25° C. RH75%, 5 days", "result": 20.1}, {"measurement": "X-ray powder diffraction peak No. 8", "setting": "[2]; 25° C. RH75%, 5 days", "result": 20.5}, {"measurement": "X-ray powder diffraction peak No. 9", "setting": "[2]; 25° C. RH75%, 5 days", "result": 21.7}, {"measurement": "X-ray powder diffraction peak No. 10", "setting": "[2]; 25° C. RH75%, 5 days", "result": 24.1}, {"measurement": "X-ray powder diffraction peak No. 11", "setting": "[2]; 25° C. RH75%, 5 days", "result": 38.2}, {"measurement": "X-ray powder diffraction peak No. 1", "setting": "[2]; 25° C. RH75%, 10 days", "result": 7.3}, {"measurement": "X-ray powder diffraction peak No. 2", "setting": "[2]; 25° C. RH75%, 10 days", "result": 11.0}, {"measurement": "X-ray powder diffraction peak No. 3", "setting": "[2]; 25° C. RH75%, 10 days", "result": 11.8}, {"measurement": "X-ray powder diffraction peak No. 4", "setting": "[2]; 25° C. RH75%, 10 days", "result": 12.5}, {"measurement": "X-ray powder diffraction peak No. 5", "setting": "[2]; 25° C. RH75%, 10 days", "result": 16.6}, {"measurement": "X-ray powder diffraction peak No. 6", "setting": "[2]; 25° C. RH75%, 10 days", "result": 17.3}, {"measurement": "X-ray powder diffraction peak No. 7", "setting": "[2]; 25° C. RH75%, 10 days", "result": 20.1}, {"measurement": "X-ray powder diffraction peak No. 8", "setting": "[2]; 25° C. RH75%, 10 days", "result": 20.5}, {"measurement": "X-ray powder diffraction peak No. 9", "setting": "[2]; 25° C. RH75%, 10 days", "result": 21.8}, {"measurement": "X-ray powder diffraction peak No. 10", "setting": "[2]; 25° C. RH75%, 10 days", "result": 24.1}, {"measurement": "X-ray powder diffraction peak No. 11", "setting": "[2]; 25° C. RH75%, 10 days", "result": 38.2}, {"measurement": "X-ray powder diffraction peak No. 1", "setting": "[2]; 25° C. RH75%, 30 days", "result": 7.1}, {"measurement": "X-ray powder diffraction peak No. 2", "setting": "[2]; 25° C. RH75%, 30 days", "result": 11.2}, {"measurement": "X-ray powder diffraction peak No. 3", "setting": "[2]; 25° C. RH75%, 30 days", "result": 11.7}, {"measurement": "X-ray powder diffraction peak No. 4", "setting": "[2]; 25° C. RH75%, 30 days", "result": 12.4}, {"measurement": "X-ray powder diffraction peak No. 5", "setting": "[2]; 25° C. RH75%, 30 days", "result": 16.5}, {"measurement": "X-ray powder diffraction peak No. 6", "setting": "[2]; 25° C. RH75%, 30 days", "result": 17.2}, {"measurement": "X-ray powder diffraction peak No. 7", "setting": "[2]; 25° C. RH75%, 30 days", "result": 20.0}, {"measurement": "X-ray powder diffraction peak No. 8", "setting": "[2]; 25° C. RH75%, 30 days", "result": 20.7}, {"measurement": "X-ray powder diffraction peak No. 9", "setting": "[2]; 25° C. RH75%, 30 days", "result": 22.0}, {"measurement": "X-ray powder diffraction peak No. 10", "setting": "[2]; 25° C. RH75%, 30 days", "result": 24.0}, {"measurement": "X-ray powder diffraction peak No. 11", "setting": "[2]; 25° C. RH75%, 30 days", "result": 38.2}, {"measurement": "X-ray powder diffraction peak No. 1", "setting": "[2]; 25° C. RH90%, 5 days", "result": 7.2}, {"measurement": "X-ray powder diffraction peak No. 2", "setting": "[2]; 25° C. RH90%, 5 days", "result": 11.0}, {"measurement": "X-ray powder diffraction peak No. 3", "setting": "[2]; 25° C. RH90%, 5 days", "result": 11.8}, {"measurement": "X-ray powder diffraction peak No. 4", "setting": "[2]; 25° C. RH90%, 5 days", "result": 12.5}, {"measurement": "X-ray powder diffraction peak No. 5", "setting": "[2]; 25° C. RH90%, 5 days", "result": 16.5}, {"measurement": "X-ray powder diffraction peak No. 6", "setting": "[2]; 25° C. RH90%, 5 days", "result": 17.3}, {"measurement": "X-ray powder diffraction peak No. 7", "setting": "[2]; 25° C. RH90%, 5 days", "result": 20.1}, {"measurement": "X-ray powder diffraction peak No. 8", "setting": "[2]; 25° C. RH90%, 5 days", "result": 20.5}, {"measurement": "X-ray powder diffraction peak No. 9", "setting": "[2]; 25° C. RH90%, 5 days", "result": 21.7}, {"measurement": "X-ray powder diffraction peak No. 10", "setting": "[2]; 25° C. RH90%, 5 days", "result": 24.1}, {"measurement": "X-ray powder diffraction peak No. 11", "setting": "[2]; 25° C. RH90%, 5 days", "result": 38.3}, {"measurement": "X-ray powder diffraction peak No. 1", "setting": "[2]; 25° C. RH90%, 10 days", "result": 7.2}, {"measurement": "X-ray powder diffraction peak No. 2", "setting": "[2]; 25° C. RH90%, 10 days", "result": 11.0}, {"measurement": "X-ray powder diffraction peak No. 3", "setting": "[2]; 25° C. RH90%, 10 days", "result": 11.8}, {"measurement": "X-ray powder diffraction peak No. 4", "setting": "[2]; 25° C. RH90%, 10 days", "result": 12.5}, {"measurement": "X-ray powder diffraction peak No. 5", "setting": "[2]; 25° C. RH90%, 10 days", "result": 16.6}, {"measurement": "X-ray powder diffraction peak No. 6", "setting": "[2]; 25° C. RH90%, 10 days", "result": 17.3}, {"measurement": "X-ray powder diffraction peak No. 7", "setting": "[2]; 25° C. RH90%, 10 days", "result": 20.2}, {"measurement": "X-ray powder diffraction peak No. 8", "setting": "[2]; 25° C. RH90%, 10 days", "result": 20.5}, {"measurement": "X-ray powder diffraction peak No. 9", "setting": "[2]; 25° C. RH90%, 10 days", "result": 21.8}, {"measurement": "X-ray powder diffraction peak No. 10", "setting": "[2]; 25° C. RH90%, 10 days", "result": 23.8}, {"measurement": "X-ray powder diffraction peak No. 11", "setting": "[2]; 25° C. RH90%, 10 days", "result": 38.3}, {"measurement": "X-ray powder diffraction peak No. 1", "setting": "[2]; 25° C. RH90%, 30 days", "result": 7.2}, {"measurement": "X-ray powder diffraction peak No. 2", "setting": "[2]; 25° C. RH90%, 30 days", "result": 11.0}, {"measurement": "X-ray powder diffraction peak No. 3", "setting": "[2]; 25° C. RH90%, 30 days", "result": 11.8}, {"measurement": "X-ray powder diffraction peak No. 4", "setting": "[2]; 25° C. RH90%, 30 days", "result": 12.5}, {"measurement": "X-ray powder diffraction peak No. 5", "setting": "[2]; 25° C. RH90%, 30 days", "result": 16.6}, {"measurement": "X-ray powder diffraction peak No. 6", "setting": "[2]; 25° C. RH90%, 30 days", "result": 17.3}, {"measurement": "X-ray powder diffraction peak No. 7", "setting": "[2]; 25° C. RH90%, 30 days", "result": 20.1}, {"measurement": "X-ray powder diffraction peak No. 8", "setting": "[2]; 25° C. RH90%, 30 days", "result": 20.5}, {"measurement": "X-ray powder diffraction peak No. 9", "setting": "[2]; 25° C. RH90%, 30 days", "result": 21.8}, {"measurement": "X-ray powder diffraction peak No. 10", "setting": "[2]; 25° C. RH90%, 30 days", "result": 24.0}, {"measurement": "X-ray powder diffraction peak No. 11", "setting": "[2]; 25° C. RH90%, 30 days", "result": 38.2}, {"measurement": "X-ray powder diffraction peak No. 1", "setting": "[2]; 40° C., 5 days", "result": 7.2}, {"measurement": "X-ray powder diffraction peak No. 2", "setting": "[2]; 40° C., 5 days", "result": 11.0}, {"measurement": "X-ray powder diffraction peak No. 3", "setting": "[2]; 40° C., 5 days", "result": 11.8}, {"measurement": "X-ray powder diffraction peak No. 4", "setting": "[2]; 40° C., 5 days", "result": 12.5}, {"measurement": "X-ray powder diffraction peak No. 5", "setting": "[2]; 40° C., 5 days", "result": 16.6}]}]}
